From US20230072683A1, “PYRIDO-PYRIMIDIN DERIVATIVES AND PHARMACEUTICAL COMPOSITION, FOR USE IN PREVENTING OR TREATING PI3 KINASE RELATED DISEASES, COMPRISING SAME AS ACTIVE INGREDIENT” (BORYUNG PHARMACEUTICAL CO., LTD, priority 2019, published 2023) come the findings set out here.

In one assay the target is DNA-PK(h) (Homo sapiens, UniProt P78527). Nature of the assay: Evaluation of inhibitory activity against DNA-PK (HTRF kinase assay, GST-cMyc-p53 substrate). It counts as biochemical. The note with it: compound concentration 0.01 μM; read-out: EXP_VALUE(% Inhibition) DNA-PK(h) 0.01 μM. The method, boiled down: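 p53 Ser15 phosphorylation by human DNA-PK was measured by time-resolved FRET ratio (665/620 nm ×10000) using Eu-labelled anti-phospho-Ser15 and d2 anti-GST antibodies. Substrate GST-cMyc-p53 at 50 μM; Mg/ATP-initiated, 30 min at room temperature, EDTA stop.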
A general note: Time-resolved FRET reads energy transfer from a long-lived donor to a nearby acceptor.

The target of assay [1] is PI3K-δ (PI3K(p1108/p857) (h)) (Homo sapiens, UniProt O00329). Nature of the assay: Evaluation of inhibitory activity against PI3K-δ (HTRF kinase assay). It counts as biochemical. Particulars: compound concentration 0.01 μM; read-out: EXP_VALUE(% Inhibition) PI3K-δ 0.01 μM. The method, boiled down:
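HTRF read-out (665/620 nm ratio ×10000) used Eu-labelled anti-GST, GST-tagged GRP1 PH domain and streptavidin-allophycocyanin after EDTA/PIP3 stop.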

Sequence of PI3K-δ (PI3K(p1108/p857) (h)) (O00329 whole entry, the tested form may be a part): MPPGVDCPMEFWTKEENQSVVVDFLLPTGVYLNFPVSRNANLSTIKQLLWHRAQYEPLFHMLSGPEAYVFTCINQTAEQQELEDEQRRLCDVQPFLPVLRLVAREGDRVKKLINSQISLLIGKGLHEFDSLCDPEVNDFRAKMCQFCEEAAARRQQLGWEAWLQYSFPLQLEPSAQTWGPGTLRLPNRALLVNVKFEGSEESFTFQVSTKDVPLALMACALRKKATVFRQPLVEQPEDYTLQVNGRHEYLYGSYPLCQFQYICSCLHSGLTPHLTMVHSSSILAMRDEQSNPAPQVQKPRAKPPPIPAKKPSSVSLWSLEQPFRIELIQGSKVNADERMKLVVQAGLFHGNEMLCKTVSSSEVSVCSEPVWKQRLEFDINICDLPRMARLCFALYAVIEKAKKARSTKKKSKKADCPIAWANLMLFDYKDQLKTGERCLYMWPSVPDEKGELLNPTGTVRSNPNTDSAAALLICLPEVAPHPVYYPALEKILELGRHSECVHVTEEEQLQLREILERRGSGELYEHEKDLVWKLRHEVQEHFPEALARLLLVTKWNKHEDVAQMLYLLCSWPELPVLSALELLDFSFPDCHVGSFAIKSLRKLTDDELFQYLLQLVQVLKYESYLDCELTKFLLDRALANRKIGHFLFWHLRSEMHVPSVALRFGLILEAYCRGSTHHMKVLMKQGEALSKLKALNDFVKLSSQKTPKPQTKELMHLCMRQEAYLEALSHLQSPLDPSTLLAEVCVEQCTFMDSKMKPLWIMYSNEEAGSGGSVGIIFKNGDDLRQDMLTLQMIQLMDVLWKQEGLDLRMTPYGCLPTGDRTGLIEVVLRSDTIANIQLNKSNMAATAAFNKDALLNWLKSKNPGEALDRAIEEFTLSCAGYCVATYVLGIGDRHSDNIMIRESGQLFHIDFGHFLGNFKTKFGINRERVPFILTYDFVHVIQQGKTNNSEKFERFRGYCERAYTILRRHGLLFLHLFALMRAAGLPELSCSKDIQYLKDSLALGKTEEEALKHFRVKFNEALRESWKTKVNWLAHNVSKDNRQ
Sequence of PI3K-δ (PI3K(p1108/p857) (h)) (P27986 whole entry partner, the tested form may be a part): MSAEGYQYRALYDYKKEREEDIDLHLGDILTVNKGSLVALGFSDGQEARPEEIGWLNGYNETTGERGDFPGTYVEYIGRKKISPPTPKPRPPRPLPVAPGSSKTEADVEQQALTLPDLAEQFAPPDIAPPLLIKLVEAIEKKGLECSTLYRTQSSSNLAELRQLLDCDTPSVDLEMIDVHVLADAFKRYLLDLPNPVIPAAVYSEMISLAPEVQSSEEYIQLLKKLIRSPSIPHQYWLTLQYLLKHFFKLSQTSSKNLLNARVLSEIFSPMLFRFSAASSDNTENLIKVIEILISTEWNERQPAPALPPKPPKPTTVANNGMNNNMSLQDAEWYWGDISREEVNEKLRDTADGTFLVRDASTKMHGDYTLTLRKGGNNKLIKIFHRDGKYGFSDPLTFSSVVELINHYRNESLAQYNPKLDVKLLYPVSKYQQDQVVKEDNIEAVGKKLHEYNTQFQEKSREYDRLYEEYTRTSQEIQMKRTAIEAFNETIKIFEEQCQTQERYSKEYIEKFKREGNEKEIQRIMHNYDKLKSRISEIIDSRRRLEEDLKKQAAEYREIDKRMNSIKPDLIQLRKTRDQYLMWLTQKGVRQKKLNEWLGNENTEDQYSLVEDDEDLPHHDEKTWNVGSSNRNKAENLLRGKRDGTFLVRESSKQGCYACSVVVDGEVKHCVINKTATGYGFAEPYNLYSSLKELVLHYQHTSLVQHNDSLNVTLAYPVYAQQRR

The term inhibition denotes how much of the control response was suppressed. With `C[C@H](Nc1ncnc2[nH]ccc(=O)c12)c1c(Cl)c2cccc(-c3cncc(N4CCOCC4)n3)c2c(=O)n1-c1ccccc1` [Example 210, (S)-4-((1-(4-chloro-8-(6-morpholinopyrazin-2-yl)-1-oxo-2-phenyl-1,2-dihydroisoquinolin-3-yl)ethyl)amino)pyrido[2,3-d]pyrimidin-5(8H)-one], the inhibition at 0.01 µM on DNA-PK(h) was 56%; in assay [1], 73%.

Consider `C[C@H](Nc1ncnc2[nH]ccc(=O)c12)c1c(Cl)c2cccc(-c3cnc(N4CCN(C)CC4)cn3)c2c(=O)n1-c1ccccc1` [Example 211, (S)-4-((1-(4-chloro-8-(5-(4-methylpiperazin-1-yl)pyrazin-2-yl)-1-oxo-2-phenyl-1,2-dihydroisoquinolin-3-yl)ethyl)amino)pyrido[2,3-d]pyrimidin-5(8H)-one], for which the results for the inhibition at 0.01 µM (at DNA-PK(h); in assay [1]) were 55% and 80%, respectively.

Turning to `Cc1nc(N)ncc1-c1cccc2c(Cl)c([C@H](C)Nc3ncnc4[nH]ccc(=O)c34)n(-c3ccccc3)c(=O)c12` [Example 212, (S)-4-((1-(8-(2-amino-4-methylpyrimidin-5-yl)-4-chloro-1-oxo-2-phenyl-1,2-dihydroisoquinolin-3-yl)ethyl)amino)pyrido[2,3-d]pyrimidin-5(8H)-one], the inhibition at 0.01 µM was 57% at DNA-PK(h) and 94% in assay [1].

As to `C[C@H](Nc1ncnc2[nH]ccc(=O)c12)c1c(Cl)c2cccc(-c3cnc4ccccc4c3)c2c(=O)n1-c1ccccc1` [Example 213, (S)-4-((1-(4-chloro-1-oxo-2-phenyl-8-(quinolin-3-yl)-1,2-dihydroisoquinolin-3-yl)ethyl)amino)pyrido[2,3-d]pyrimidin-5(8H)-one], the inhibition at 0.01 µM at DNA-PK(h) is 69%; in assay [1] it was 98%.

As for `CSc1ncc(-c2cccc3c(Cl)c([C@H](C)Nc4ncnc5[nH]ccc(=O)c45)n(-c4ccccc4)c(=O)c23)cn1` [Example 214, (S)-4-((1-(4-chloro-8-(2-(methylthio)pyrimidin-5-yl)-1-oxo-2-phenyl-1,2-dihydroisoquinolin-3-yl)ethyl)amino)pyrido[2,3-d]pyrimidin-5(8H)-one], the inhibition at 0.01 µM at DNA-PK(h) was 70%; in assay [1], 99%.

Consider `CC(C)c1ncncc1-c1cccc2c(Cl)c([C@H](C)Nc3ncnc4[nH]ccc(=O)c34)n(-c3ccccc3)c(=O)c12` [Example 215, (S)-4-((1-(4-chloro-8-(4-isopropylpyrimidin-5-yl)-1-oxo-2-phenyl-1,2-dihydroisoquinolin-3-yl)ethyl)amino)pyrido[2,3-d]pyrimidin-5(8H)-one], for which the inhibition at 0.01 µM at DNA-PK(h) came out at 44%; in assay [1] it was 73%.

Regarding `C[C@H](Nc1ncnc2[nH]ccc(=O)c12)c1c(Cl)c2cccc(-c3cnc(N4CCN(C)CC4)nc3)c2c(=O)n1-c1ccccc1` [Example 216, (S)-4-((1-(4-chloro-8-(2-(4-methylpiperazin-1-yl)pyrimidin-5-yl)-1-oxo-2-phenyl-1,2-dihydroisoquinolin-3-yl)ethyl)amino)pyrido[2,3-d]pyrimidin-5(8H)-one], the inhibition at 0.01 µM on DNA-PK(h) is 75%; in assay [1], 96%.

In the case of `CCN(CC)c1ncc(-c2cccc3c(Cl)c([C@H](C)Nc4ncnc5[nH]ccc(=O)c45)n(-c4ccccc4)c(=O)c23)cn1` [Example 217, (S)-4-((1-(4-chloro-8-(2-(diethylamino)pyrimidin-5-yl)-1-oxo-2-phenyl-1,2-dihydroisoquinolin-3-yl)ethyl)amino)pyrido[2,3-d]pyrimidin-5(8H)-one], the inhibition at 0.01 µM came to 66% on DNA-PK(h) and 71% in assay [1].

`C[C@H](Nc1ncnc2[nH]ccc(=O)c12)c1c(Cl)c2cccc(-c3cncc(S(C)(=O)=O)c3)c2c(=O)n1-c1ccccc1` [Example 218, (S)-4-((1-(4-chloro-8-(5-(methylsulfonyl)pyridin-3-yl)-1-oxo-2-phenyl-1,2-dihydroisoquinolin-3-yl)ethyl)amino)pyrido[2,3-d]pyrimidin-5(8H)-one]: the inhibition at 0.01 µM on DNA-PK(h) amounted to 85%; in assay [1] it was 99%.

For the compound `C[C@H](Nc1ncnc2[nH]ccc(=O)c12)c1c(Cl)c2cccc(-c3ccc(S(C)(=O)=O)nc3)c2c(=O)n1-c1ccccc1` [Example 219, (S)-4-((1-(4-chloro-8-(6-(methylsulfonyl)pyridin-3-yl)-1-oxo-2-phenyl-1,2-dihydroisoquinolin-3-yl)ethyl)amino)pyrido[2,3-d]pyrimidin-5(8H)-one], the inhibition at 0.01 µM at DNA-PK(h) is 82%; in assay [1], 97%.

On to `CC(C)Nc1ncc(-c2cccc3c(Cl)c([C@H](C)Nc4ncnc5[nH]ccc(=O)c45)n(-c4ccccc4)c(=O)c23)cn1` [Example 220, (S)-4-((1-(4-chloro-8-(2-(isopropylamino)pyrimidin-5-yl)-1-oxo-2-phenyl-1,2-dihydroisoquinolin-3-yl)ethyl)amino)pyrido[2,3-d]pyrimidin-5(8H)-one], for which the values for the inhibition at 0.01 µM (at DNA-PK(h); in assay [1]) were 73% and 87%, respectively.

As for `COc1cnc(-c2cccc3c(Cl)c([C@H](C)Nc4ncnc5[nH]ccc(=O)c45)n(-c4ccccc4)c(=O)c23)cn1` [Example 221, (S)-4-((1-(4-chloro-8-(5-methoxypyrazin-2-yl)-1-oxo-2-phenyl-1,2-dihydroisoquinolin-3-yl)ethyl)amino)pyrido[2,3-d]pyrimidin-5(8H)-one], the figures for the inhibition at 0.01 µM (at DNA-PK(h); in assay [1]) were 27% and 67%, respectively.

With `C[C@H](Nc1ncnc2[nH]ccc(=O)c12)c1c(Cl)c2cccc(-c3cnc(N4CCCC4)nc3)c2c(=O)n1-c1ccccc1` [Example 222, (S)-4-((1-(4-chloro-1-oxo-2-phenyl-8-(2-(pyrrolidin-1-yl)pyrimidin-5-yl)-1,2-dihydroisoquinolin-3-yl)ethyl)amino)pyrido[2,3-d]pyrimidin-5(8H)-one], the inhibition at 0.01 µM was 55% on DNA-PK(h) and 75% in assay [1].

With `C[C@H](Nc1ncnc2[nH]ccc(=O)c12)c1c(Cl)c2cccc(-c3ccc(OC(F)(F)F)nc3)c2c(=O)n1-c1ccccc1` [Example 223, (S)-4-((1-(4-chloro-1-oxo-2-phenyl-8-(6-(trifluoromethoxy)pyridin-3-yl)-1,2-dihydroisoquinolin-3-yl)ethyl)amino)pyrido[2,3-d]pyrimidin-5(8H)-one], the inhibition at 0.01 µM worked out at 34% on DNA-PK(h) and 68% in assay [1].

Regarding `C[C@H](Nc1ncnc2[nH]ccc(=O)c12)c1c(Cl)c2cccc(-c3cnc(N4CCCCC4)nc3)c2c(=O)n1-c1ccccc1` [Example 224, (S)-4-((1-(4-chloro-1-oxo-2-phenyl-8-(2-(piperidin-1-yl)pyrimidin-5-yl)-1,2-dihydroisoquinolin-3-yl)ethyl)amino)pyrido[2,3-d]pyrimidin-5(8H)-one], the inhibition at 0.01 µM was found to be 19% on DNA-PK(h) and 57% in assay [1].

For the compound `COc1ncc(-c2cccc3c(Cl)c([C@H](C)Nc4ncnc5[nH]ccc(=O)c45)n(-c4ccccc4)c(=O)c23)cc1NS(C)(=O)=O` [Example 225, (S)—N-(5-(4-chloro-1-oxo-3-(1-((5-oxo-5,8-dihydropyrido[2,3-d]pyrimidin-4-yl)amino)ethyl)-2-phenyl-1,2-dihydroisoquinolin-8-yl)-2-methoxypyridin-3-yl)methanesulfonamide], the inhibition at 0.01 µM at DNA-PK(h) worked out at 76%; in assay [1], 74%.

Turning to `C[C@H](Nc1ncnc2[nH]ccc(=O)c12)c1c(Cl)c2cccc(-c3cc[nH]n3)c2c(=O)n1-c1ccccc1` [Example 226, (S)-4-((1-(4-chloro-1-oxo-2-phenyl-8-(1H-pyrazol-3-yl)-1,2-dihydroisoquinolin-3-yl)ethyl)amino)pyrido[2,3-d]pyrimidin-5(8H)-one], the inhibition at 0.01 µM on DNA-PK(h) came to 56%; in assay [1], 83%.

In the case of `C[C@H](Nc1ncnc2[nH]ccc(=O)c12)c1c(Cl)c2cccc(-c3cn[nH]c3)c2c(=O)n1-c1ccccc1` [Example 227, (S)-4-((1-(4-chloro-1-oxo-2-phenyl-8-(1H-pyrazol-4-yl)-1,2-dihydroisoquinolin-3-yl)ethyl)amino)pyrido[2,3-d]pyrimidin-5(8H)-one], the inhibition at 0.01 µM on DNA-PK(h) turned out to be 73%; in assay [1], 93%.

On to `CCNc1ncc(-c2cccc3c(Cl)c([C@H](C)Nc4ncnc5[nH]ccc(=O)c45)n(-c4ccccc4)c(=O)c23)cn1` [Example 228, (S)-4-((1-(4-chloro-8-(2-(ethylamino)pyrimidin-5-yl)-1-oxo-2-phenyl-1,2-dihydroisoquinolin-3-yl)ethyl)amino)pyrido[2,3-d]pyrimidin-5(8H)-one], for which the figures for the inhibition at 0.01 µM (at DNA-PK(h); in assay [1]) were 78% and 88%, respectively.

Consider `COc1ncc(-c2cccc3c(Cl)c([C@H](C)Nc4ncnc5[nH]ccc(=O)c45)n(-c4ccccc4)c(=O)c23)cc1C#N` [Example 229, (S)-5-(4-chloro-1-oxo-3-(1-((5-oxo-5,8-dihydropyrido[2,3-d]pyrimidin-4-yl)amino)ethyl)-2-phenyl-1,2-dihydroisoquinolin-8-yl)-2-methoxynicotinonitrile], for which the inhibition at 0.01 µM at DNA-PK(h) is 45%; in assay [1] it was 68%.

Take `CCOc1cnc(-c2cccc3c(Cl)c([C@H](C)Nc4ncnc5[nH]ccc(=O)c45)n(-c4ccccc4)c(=O)c23)cn1` [Example 230, (S)-4-((1-(4-chloro-8-(5-ethoxypyrazin-2-yl)-1-oxo-2-phenyl-1,2-dihydroisoquinolin-3-yl)ethyl)amino)pyrido[2,3-d]pyrimidin-5(8H)-one]: the inhibition at 0.01 µM on DNA-PK(h) came to 41%; in assay [1], 76%.
